Data taken from patent US9545412B2, “Composition and methods used during anti-HIV treatment” (UNIVERSITE D'AIX-MARSEILLE, priority 2008, dated 2017).

Key:
Zmpste24^−/− mouse cells = assay: Nuclear morphology of Zmpste24^−/− mouse cells in culture; assay type: cell-based; conditions: pravastatin (1 μM) and zoledronate (1 μM), alone or in combination
Source text: (§1) The dermal fibroblasts of a control subject (GM00038) and of patients afflicted with progeria and carriers of the mutation G608G (AG11498 and AG01972) were obtained from the Coriell Cell Repository. The HeLa cells come from the American Type Culture Collection. The cells are cultivated in DMEM (Gibco) supplemented with 10% FBS (Gibco) and 1% antibiotic-antimycotic (Gibco). The fibroblasts come from tails of 12-day-old mice (Varela and al., 2005). The concentration and the duration of treatment with the statin and the aminobiphosphonate are indicated in the legende of the figures. During the combined statin+aminobiphosphonate treatment in the presence of farnesol and/or of geranylgeraniol, 1 mM of pravastatin and 1 mM of zoledronate were added to the culture medium with increasing concentrations of farnesol and/or of geranylgeraniol. The percentage of abnormal nuclei is measured 48 h after the beginning of the treatment.
(§2) Quantification of the effect of pravastatin (1 μM) and zoledronate (1 μM), alone or in combination, on the nuclear morphology of Zmpste24^−/− mouse cells (a) and control mouse cells (b) in culture, in the presence of farnesol, geranylgeraniol or both molecules.

control fibroblasts = assay: Nuclear morphology of control mouse cells in culture; assay type: cell-based
Source text: as §1, §2

[1] = system: cells of progeria patients; assay: Quantitative analysis of nuclear morphology of cells of progeria patients; assay type: cell-based, human; conditions: added to pravastatin+zoledronate, abnormal nuclei measured 48 h after beginning of treatment
Source text: as §1, with “During the combined statin+aminobiphosphonate treatment in the presence of farnesol and/or of geranylgeraniol, 1 mM of pravastatin and 1 mM of zoledronate were added to the culture medium with increasing concentrations of farnesol and/or of geranylgeraniol.” left out, “treatment. […]” for “treatment.”
The dilution of the primary antibodies is 1/100 for the goat polyclonal anti-prelamin A antibody (Sc-6214, Santa Cruz Biotechnologies), 1/40 for the anti-lamin A/C antibody (4A7 provided by G. Morris), 1/200 for the Rabbit anti-calreticulin antibody (Stressgen) and 1/100 for the B1 anti-lamin antibody (Abcam). […] Digital images are recorded with a Leica DMR microscope equipped with a CoolSnap camera or with a Leica TCS SP5 confocal microscope. […] More than 100 nuclei were analysed in the control fibroblasts for each of the treatments. The number of nuclei of cells of patients afflicted with progeria analysed is 250 (passage 8), 198 (passage 13) and 150 (passage 20). […]

prelamin A [2] = assay: Immunohistochemistry: prelamin A level in healthy cells; assay type: cell-based, human; conditions: Pravastatin 100 μM for 12 hours, Zoledronate 20 μM for 6 hours; in association or alone
Method: (§3) A cell culture is trypsinized, and the cells are counted on a Neubauer cytometer.
(§4) Labtech culture wells (Nunc, ref. 177399) are seeded in an amount of 5×10^4 cells per well.
(§5) The complete culture medium is supplemented by the treatment(s) (statin, NBP, both), and the cells are cultivated for the ad hoc time.
(§6) The cells are fixed in a paraformaldehyde 4% solution (in PBS) for 10 minutes at room temperature.
(§7) […], the cells are incubated for 5 minutes at room temperature in a humidity chamber in 50 μl of permeabilization solution:
(§8) The primary antibody is diluted to 1/100 in 50 μl of incubation solution and placed in contact with the cells for 1 hour at room temperature in a humidity chamber.
(§9) The primary antibodies used are of two types: • Mouse anti-lamin A/C (N-terminal side), clone 4A7, donated by G. Morris (Oswestry, UK) • Goat anti-prelamin A (C-terminal end 15 aa), product SC6214, Santa Cruz Biotchnology, Inc.
(§10) The incubation with the secondary antibody takes place for 1 hour in […] of incubation solution at room temperature in a humidity chamber. […]
(§11) The cells are immersed in one drop of VectaShield (Vector), covered with an object-cover slide and observed under a fluorescence microscope (Leica DMR, Leica Microsystems), equipped with a coolSNAP camera (Princeton). […]

healthy cells = assay: Immunohistochemistry: toxicity / deformed nuclei on healthy cells; assay type: cell-based, human; conditions: Pravastatin 100 μM for 12 hours, Zoledronate 20 μM for 6 hours; in association or alone
Method: as §3, §4, §5, §6, §7, §8, §9, §10, §11

progerin = assay: Mass spectrometry (MALDI-ToF) of nuclear envelope proteins, cells of progeria patients; assay type: cell-based, human; conditions: FTI 2.5 μM
Source text: (§12) The fibroblasts of control and Zmpste24^−/− mice as well as the cells lymphoblastoids of progeria patients have been homogenised, the nuclei isolated via ultracentrifugation and the nuclear proteins obtained as described in Blobel and Potter, V. R. Nuclei from rat liver: isolation method that combines purity with high yield, Science 154, 1662-1665, 1966. The proteins of the nuclear lamina were separated via SDS-PAGE electrophoresis, and the strips containing the lamin A, the prelamin A and the progerin were excised. The fragments of the gel were washed twice with […] of a ammonium bicarbonate/acetonitrile mixture (70/30, 25 mM), dried (15 min, 90° C.) and digested (1 h, 60° C.) with trypsin (12 ng/ml, Promega) in the ammonium bicarbonate 25 mM. […] The data collected using 200 laser firings produce spectra analysed with the Data Explorer programme (version 4.0.0.0, Applied Biosystems).
FIG. 11 legend: mass spectrometry analysis of the proteins extracted from the nuclear envelop of the untreated cells (a), of the cells of the progeria patients treated with FTI (2.5 μM, b) or treated with the mixture of pravastatin+zoledronate (1 μM apiece, c). […] Each peak corresponds to the tryptic peptide of the progerin and is marked with the measured monoisotopic mass in experiment and with the theoretical mass (between parentheses). […]

prelamin A [3] = assay: Mass spectrometry (MALDI-ToF) of nuclear envelope proteins, Zmpste24^−/− mouse fibroblasts; assay type: cell-based; conditions: FTI-treated Zmpste24^−/− mouse cells
Source text: as §12
FIG. 12 legend: a mass spectrometry analysis of the proteins extracted from the nuclear envelop of the untreated fibroblasts (a) or treated with a mixture of pravastatin+zoledronate (1 μM apiece, b) stemming from Zmpste24^−/− mice. […] Each peak corresponds to a tryptic peptide of the progerin and is marked with a monoisotopic mass measured the experiment and with the theoritical mass (in parentheses). […]

Zmpste24^−/− mice = assay: Progeroid phenotype and lifespan of Zmpste24^−/− mice (Example 7); assay type: in vivo, mouse; conditions: daily treatment with one drug alone
Method: All of the experiments on mice are governed by the rules set down by the Animal Experiment Committee of the University of Oviedo (Spain). The pravastatin (100 mg/kg/day) and the zoledronate (100 mg/kg/day) diluted in PBS are administered to the mice every day.

CC(C)=CCC/C(C)=C/CC/C(C)=C/CC/C(C)=C/CO [geranylgeraniol]
effect on the nuclear morphology improvement given by the pravastatin+zoledronate treatment (Zmpste24^−/− mouse cells): nullify the effect of the pravastatin+zoledronate treatment | effect on nuclear morphology of control fibroblasts (control fibroblasts): Neither farnesol nor geranylgeraniol have any effect | effect on the nuclear morphology improvement given by the pravastatin+zoledronate treatment [1]: blocks the effect of the treatment

CC[C@H](C)C(=O)O[C@H]1C[C@H](O)C=C2C=C[C@H](C)[C@H](CC[C@@H](O)C[C@@H](O)CC(=O)O)[C@H]21 [pravastatin]
prelamin A level produced in healthy cells (prelamin A [2]): 25% | rate of deformed nuclei (sign of toxicity on healthy cells) (healthy cells): around 12%

COC(=O)[C@H](CCSC)NC(=O)c1ccc(NC[C@@H](N)CS)cc1-c1ccccc1 [FTI-277]
farnesylated and carboxymethylated progerin peak (progerin): considerable reduced | geranylgeranylated progerin peptides (progerin): appears geranylgeranylated and phosphoryl | geranyl-geranylated prelamin A peptide (prelamin A [3]): detected a peptide which mass is compatible with a geranyl-geranylated fragment of the prelamine A | quantity of farnesylated prelamin A (prelamin A [3]): reduction in the quantity of farnesyled prelamine A

CC(C)=CCCC(C)=CCCC(C)=CCO [farnesol]
effect on the nuclear morphology improvement given by the pravastatin+zoledronate treatment (Zmpste24^−/− mouse cells): nullify the effect of the pravastatin+zoledronate treatment | effect on nuclear morphology of control fibroblasts (control fibroblasts): Neither farnesol nor geranylgeraniol have any effect | effect on the nuclear morphology improvement given by the pravastatin+zoledronate treatment [1]: nullifies the effect of the pravastatin+zoledronate treatment

O=P(O)(O)C(O)(Cn1ccnc1)P(=O)(O)O [zoledronate, (1-hydroxy-2-imidazol-1-yl-1-phosphono-ethyl) phosphonic acid]
prelamin A level produced in healthy cells (prelamin A [2]): 15% | lifespan of Zmpste24^−/− mice, drug in isolation (Zmpste24^−/− mice): neither of the drugs in isolation, pravastatin or zoledronate, increases the lifespan
